In PubChem BioAssay (NCI):
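Exposure lasted 48 hours, with cells grown in 96-well plates and compounds tested at five concentrations. GI50 = concentration required for 50% inhibition of growth. TGI is the concentration that stops growth completely.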

Experiments:
Assay in all cases: NCI tumour cell line growth inhibition, 48 h
T-47D breast = system: T-47D breast
UO-31 renal = system: UO-31 renal
SF-539 CNS = system: SF-539 CNS
TK-10 renal = system: TK-10 renal
MCF7 breast = system: MCF7 breast
A498 renal = system: A498 renal
CCRF-CEM leukemia = system: CCRF-CEM leukemia
HT29 colon = system: HT29 colon
U251 CNS = system: U251 CNS
HL-60(TB) leukemia = system: HL-60(TB) leukemia
IGROV1 ovarian = system: IGROV1 ovarian
RPMI-8226 leukemia = system: RPMI-8226 leukemia
KM12 colon = system: KM12 colon
SNB-75 CNS = system: SNB-75 CNS
OVCAR-4 ovarian = system: OVCAR-4 ovarian
OVCAR-8 ovarian = system: OVCAR-8 ovarian
SNB-19 CNS = system: SNB-19 CNS
NCI-H522 lung = system: NCI-H522 lung
M14 melanoma = system: M14 melanoma
COLO 205 colon = system: COLO 205 colon
SK-MEL-28 melanoma = system: SK-MEL-28 melanoma
HS 578T breast = system: HS 578T breast
MDA-MB-231 breast = system: MDA-MB-231 breast
NCI-H226 lung = system: NCI-H226 lung
HCT-15 colon = system: HCT-15 colon
OVCAR-3 ovarian = system: OVCAR-3 ovarian
SK-OV-3 ovarian = system: SK-OV-3 ovarian
HOP-92 NSCLC = system: HOP-92 NSCLC
K-562 leukemia = system: K-562 leukemia
MALME-3M melanoma = system: MALME-3M melanoma
A549 NSCLC = system: A549 NSCLC
SF-268 CNS = system: SF-268 CNS
SN12C renal = system: SN12C renal
SK-MEL-5 melanoma = system: SK-MEL-5 melanoma
NCI-H460 lung = system: NCI-H460 lung
NCI-H23 lung = system: NCI-H23 lung
RXF 393 renal = system: RXF 393 renal
LOX IMVI melanoma = system: LOX IMVI melanoma
SW-620 colon = system: SW-620 colon
PC-3 prostate = system: PC-3 prostate
786-0 renal = system: 786-0 renal
NCI/ADR-RES ovarian = system: NCI/ADR-RES ovarian
BT-549 breast = system: BT-549 breast
SK-MEL-2 melanoma = system: SK-MEL-2 melanoma
MDA-MB-435 = system: MDA-MB-435
ACHN renal = system: ACHN renal
HCC-2998 colon = system: HCC-2998 colon
CAKI-1 renal = system: CAKI-1 renal
DU-145 prostate = system: DU-145 prostate
HCT-116 colon = system: HCT-116 colon
OVCAR-5 ovarian = system: OVCAR-5 ovarian
UACC-257 melanoma = system: UACC-257 melanoma
UACC-62 melanoma = system: UACC-62 melanoma
HOP-62 NSCLC = system: HOP-62 NSCLC
SF-295 CNS = system: SF-295 CNS
SR leukemia = system: SR leukemia
MOLT-4 leukemia = system: MOLT-4 leukemia

C[C@H](O)CNc1cc(-c2[nH]c3cccnc3c2-c2ccc(F)cc2)ccn1
GI50 (T-47D breast): 8.88 µM
TGI (T-47D breast): > 25 µM
GI50 (UO-31 renal): 4.08 µM
TGI (UO-31 renal): > 25 µM
GI50 (SF-539 CNS): > 25 µM
TGI (SF-539 CNS): > 25 µM
GI50 (TK-10 renal): 10.3 µM
TGI (TK-10 renal): > 25 µM
GI50 (MCF7 breast): 6.37 µM
TGI (MCF7 breast): > 25 µM
GI50 (A498 renal): 4.19 µM
TGI (A498 renal): > 25 µM
GI50 (CCRF-CEM leukemia): 20.1 µM
TGI (CCRF-CEM leukemia): > 25 µM
GI50 (HT29 colon): 10.1 µM
TGI (HT29 colon): > 25 µM
GI50 (U251 CNS): > 18.5 µM
TGI (U251 CNS): > 25 µM
GI50 (HL-60(TB) leukemia): > 25 µM
TGI (HL-60(TB) leukemia): > 25 µM
GI50 (IGROV1 ovarian): 6.35 µM
TGI (IGROV1 ovarian): > 21.8 µM
GI50 (RPMI-8226 leukemia): > 17.1 µM
TGI (RPMI-8226 leukemia): > 25 µM
GI50 (KM12 colon): 22.1 µM
TGI (KM12 colon): > 25 µM
GI50 (SNB-75 CNS): 11.8 µM
TGI (SNB-75 CNS): > 25 µM
GI50 (OVCAR-4 ovarian): > 25 µM
TGI (OVCAR-4 ovarian): > 25 µM
GI50 (OVCAR-8 ovarian): > 20.2 µM
TGI (OVCAR-8 ovarian): > 25 µM
GI50 (SNB-19 CNS): 18.5 µM
TGI (SNB-19 CNS): > 25 µM
GI50 (NCI-H522 lung): > 25 µM
TGI (NCI-H522 lung): > 25 µM
GI50 (M14 melanoma): > 25 µM
TGI (M14 melanoma): > 25 µM
GI50 (COLO 205 colon): 13.5 µM
TGI (COLO 205 colon): > 25 µM
GI50 (SK-MEL-28 melanoma): > 25 µM
TGI (SK-MEL-28 melanoma): > 25 µM
GI50 (HS 578T breast): 15.8 µM
TGI (HS 578T breast): > 25 µM
GI50 (MDA-MB-231 breast): 24.1 µM
TGI (MDA-MB-231 breast): > 25 µM
GI50 (NCI-H226 lung): 12.9 µM
TGI (NCI-H226 lung): > 25 µM
GI50 (HCT-15 colon): 10.3 µM
TGI (HCT-15 colon): > 25 µM
GI50 (OVCAR-3 ovarian): 22.2 µM
TGI (OVCAR-3 ovarian): > 25 µM
GI50 (SK-OV-3 ovarian): 13.1 µM
TGI (SK-OV-3 ovarian): > 25 µM
GI50 (HOP-92 NSCLC): 1590 nM
TGI (HOP-92 NSCLC): > 22.9 µM
GI50 (K-562 leukemia): > 23 µM
TGI (K-562 leukemia): > 25 µM
GI50 (MALME-3M melanoma): > 14.4 µM
TGI (MALME-3M melanoma): > 25 µM
GI50 (A549 NSCLC): 13.4 µM
TGI (A549 NSCLC): > 25 µM
GI50 (SF-268 CNS): 17.3 µM
TGI (SF-268 CNS): > 25 µM
GI50 (SN12C renal): 11.9 µM
TGI (SN12C renal): > 25 µM
GI50 (SK-MEL-5 melanoma): 10.3 µM
TGI (SK-MEL-5 melanoma): > 25 µM
GI50 (NCI-H460 lung): 8.43 µM
TGI (NCI-H460 lung): > 25 µM
GI50 (NCI-H23 lung): > 25 µM
TGI (NCI-H23 lung): > 25 µM
GI50 (RXF 393 renal): 14.6 µM
TGI (RXF 393 renal): > 25 µM
GI50 (LOX IMVI melanoma): 12.5 µM
TGI (LOX IMVI melanoma): > 25 µM
GI50 (SW-620 colon): > 25 µM
TGI (SW-620 colon): > 25 µM
GI50 (PC-3 prostate): > 23 µM
TGI (PC-3 prostate): > 25 µM
GI50 (786-0 renal): 16.2 µM
TGI (786-0 renal): > 25 µM
GI50 (NCI/ADR-RES ovarian): > 25 µM
TGI (NCI/ADR-RES ovarian): > 25 µM
GI50 (BT-549 breast): 17.8 µM
TGI (BT-549 breast): > 25 µM
GI50 (SK-MEL-2 melanoma): > 25 µM
TGI (SK-MEL-2 melanoma): > 25 µM
GI50 (MDA-MB-435): > 23 µM
TGI (MDA-MB-435): > 25 µM
GI50 (ACHN renal): 4.66 µM
TGI (ACHN renal): > 25 µM
GI50 (HCC-2998 colon): > 23.3 µM
TGI (HCC-2998 colon): > 25 µM
GI50 (CAKI-1 renal): 9.06 µM
TGI (CAKI-1 renal): > 25 µM
GI50 (DU-145 prostate): 18.7 µM
TGI (DU-145 prostate): > 25 µM
GI50 (HCT-116 colon): 13.2 µM
TGI (HCT-116 colon): > 25 µM
GI50 (OVCAR-5 ovarian): > 25 µM
TGI (OVCAR-5 ovarian): > 25 µM
GI50 (UACC-257 melanoma): > 25 µM
TGI (UACC-257 melanoma): > 25 µM
GI50 (UACC-62 melanoma): 12.3 µM
TGI (UACC-62 melanoma): > 25 µM
GI50 (HOP-62 NSCLC): 20.1 µM
TGI (HOP-62 NSCLC): > 25 µM
GI50 (SF-295 CNS): > 12.4 µM
TGI (SF-295 CNS): > 25 µM
GI50 (SR leukemia): 13.3 µM
TGI (SR leukemia): > 25 µM
GI50 (MOLT-4 leukemia): > 25 µM
TGI (MOLT-4 leukemia): > 25 µM
